In ChEMBL document CHEMBL1201862, “PubChem BioAssay data set” (2004):
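Method: 48-hour compound exposure of cells in 96-well plates, five concentrations, linear interpolation of endpoints. GI50 marks 50% less growth.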 Activity calls are given as the source filed them. Rule as the data show it: active = GI50 up to about 1.1 µM and inactive = higher.

Experiments:
Experiment in all cases: growth of human tumour cells (NCI), 48 h
[1] = test system: SNB-19
[2] = test system: Malme-3M
[3] = test system: SK-MEL-5
[4] = test system: U-251
[5] = test system: TK-10
[6] = test system: A549
[7] = test system: UACC-257
[8] = test system: OVCAR-4
[9] = test system: OVCAR-8
[10] = test system: SK-MEL-2
[11] = test system: MOLT-4
[12] = test system: SR
[13] = test system: RPMI-8226
[14] = test system: HCT-116
[15] = test system: NCI-H226
[16] = test system: 786-0
[17] = test system: M14
[18] = test system: EKVX

| Structure (SMILES) | GI50 [1] | GI50 [2] | GI50 [3] | GI50 [4] | GI50 [5] | GI50 [6] | GI50 [7] | GI50 [8] | GI50 [9] | GI50 [10] | GI50 [11] | GI50 [12] | GI50 [13] | GI50 [14] | GI50 [15] | GI50 [16] | GI50 [17] | GI50 [18] |
| --- | --- | --- | --- | --- | --- | --- | --- | --- | --- | --- | --- | --- | --- | --- | --- | --- | --- | --- |
| CCOC(=O)[C@H]1Nc2ccc(OC)cc2C2c3ccccc3CC21 (some centres undefined) | > 100 µM (inactive) | > 100 µM (inactive) | > 100 µM (inactive) | > 100 µM (inactive) | > 100 µM (inactive) | > 100 µM (inactive) | > 100 µM (inactive) | > 100 µM (inactive) | > 100 µM (inactive) | > 100 µM (inactive) | > 100 µM (inactive) | > 100 µM (inactive) | > 100 µM (inactive) | > 100 µM (inactive) | > 100 µM (inactive) | > 100 µM (inactive) | > 100 µM (inactive) |  |
| CCOC(=O)C1=C(C)N(NC(=O)Nc2ccccc2)C2(N)N(NC(=O)Nc3ccccc3)C(C)=C(C(=O)OCC)C12C#N (centres undefined) |  | 15.5 µM (inactive) |  | 18.4 µM (inactive) | 25.2 µM (inactive) | 26.5 µM (inactive) | 23.7 µM (inactive) | 17.4 µM (inactive) | 18.5 µM (inactive) | 16.1 µM (inactive) | 21.6 µM (inactive) |  | 22 µM (inactive) | 17.5 µM (inactive) | 18.4 µM (inactive) | 18 µM (inactive) | 19.9 µM (inactive) |  |
| Cc1nc2nnc(C)n2c2c1C(=O)Nc1ccccc1N2 | > 100 µM (inactive) | > 100 µM (inactive) |  | > 100 µM (inactive) | > 100 µM (inactive) | > 100 µM (inactive) | > 100 µM (inactive) |  | > 100 µM (inactive) | > 100 µM (inactive) | > 100 µM (inactive) | > 100 µM (inactive) | > 100 µM (inactive) | > 100 µM (inactive) | > 100 µM (inactive) | > 100 µM (inactive) | > 100 µM (inactive) | > 100 µM (inactive) |
| Cc1cc2c(c(C(N)=O)c1C)-c1cc(Cl)cc(Cl)c1C2=O | 79.4 µM (inactive) | > 100 µM (inactive) |  | 30.7 µM (inactive) | > 100 µM (inactive) |  | > 100 µM (inactive) | > 100 µM (inactive) | 37.7 µM (inactive) | > 100 µM (inactive) | > 100 µM (inactive) |  | > 100 µM (inactive) | > 100 µM (inactive) |  | 60.5 µM (inactive) | > 100 µM (inactive) | 58.9 µM (inactive) |
| C/C(CC(=O)Nc1ccc(C)c(C)c1)=N\NC(N)=O |  | > 100 µM (inactive) | > 100 µM (inactive) | > 100 µM (inactive) | > 100 µM (inactive) | > 100 µM (inactive) | > 100 µM (inactive) |  | > 100 µM (inactive) | > 100 µM (inactive) | > 100 µM (inactive) |  | > 100 µM (inactive) | > 100 µM (inactive) | 57.9 µM (inactive) | > 100 µM (inactive) | > 100 µM (inactive) | > 100 µM (inactive) |
| CC1=NN(C(=O)c2ccncc2)C(=O)C1/N=N/c1ccc(F)cc1 (centres undefined) | > 100 µM (inactive) | > 100 µM (inactive) | > 100 µM (inactive) |  | > 100 µM (inactive) | > 100 µM (inactive) | > 100 µM (inactive) | > 100 µM (inactive) | > 100 µM (inactive) | > 100 µM (inactive) |  |  | > 100 µM (inactive) | 96.8 µM (inactive) | 81.1 µM (inactive) | > 100 µM (inactive) | > 100 µM (inactive) | 20 µM (inactive) |
| CN(C)CCSc1nccc(-c2cc3ccccc3s2)n1 |  | 19.5 µM (inactive) | 14.3 µM (inactive) | 20.2 µM (inactive) | > 10 µM (inactive) | 17.6 µM (inactive) | > 10 µM (inactive) | 38.5 µM (inactive) | 22.3 µM (inactive) | 17.3 µM (inactive) | 26.2 µM (inactive) | 19.2 µM (inactive) |  | 24.4 µM (inactive) | 14.9 µM (inactive) | 24.2 µM (inactive) | 15.6 µM (inactive) |  |
| CNS(=O)(=O)NNS(=O)(=O)c1cccc([N+](=O)[O-])c1 | > 100 µM (inactive) | > 100 µM (inactive) | > 100 µM (inactive) | > 100 µM (inactive) | > 100 µM (inactive) | > 100 µM (inactive) | > 100 µM (inactive) | > 100 µM (inactive) | > 100 µM (inactive) | > 100 µM (inactive) | > 100 µM (inactive) | > 100 µM (inactive) | > 100 µM (inactive) | > 100 µM (inactive) |  | > 100 µM (inactive) | > 100 µM (inactive) | > 100 µM (inactive) |
| N#CC1=C(N)Oc2c(ccc3cccnc23)C1c1ccccc1 (centres undefined) | 5.3 µM (inactive) | 15.2 µM (inactive) | 0.811 µM (active) | 0.908 µM (active) | 3.9 µM (inactive) | 0.738 µM (active) | 3.61 µM (inactive) | 17.2 µM (inactive) | 3.38 µM (inactive) | 0.296 µM (active) | 0.667 µM (active) | 0.333 µM (active) |  | 0.562 µM (active) |  | 6 µM (inactive) | 0.57 µM (active) | 4.78 µM (inactive) |
